From publication PMC6906431, “Selective small molecule PARG inhibitor causes replication fork stalling and cancer cell death” (Nature Communications, 2019)

How the values were obtained:
[1] = tested on: PC3 cells; assay: Sulforhodamine B (SRB) cytotoxicity assay; settings: Homo sapiens, PC-3, 72 h, without IR
[2] = Sulforhodamine B (SRB) cytotoxicity assay; settings: human, PC3 cells, Viability, without IR
[3] = tested on: MRC-5 cells; assay: Sulforhodamine B (SRB) cytotoxicity assay; assay type: cell-based, human; settings: Homo sapiens, MRC5, 72 h
Procedure: (§1) Fig. 6 Selective inhibition of PARG by xanthine derivative JA2131. a Clonogenic survival assays of PC3, MDA-MB-231, and MCF-7 cells treated with PARGi. Cells were treated with either DMSO or 10 µM JA2131 for 2 h, irradiated with 3 Gy (MDA-MB-231 and MCF-7), 7 Gy (PC3) IR and grown for ~2 weeks, then colonies were fixed with methanol and stained with crystal violet. The results of three independent experiments are shown. Error bars = the standard error of the mean (SEM). b dose-response of JA2131 in MDA-MB-231 cells with and without IR. Cells were treated with designated concentrations of JA2131 for 2 h and then either left untreated or exposed to 3 Gy IR and allowed to recover for 1 h before lysis. Total protein was immunoblotted with anti-PAR antibody (upper panel), stripped and reprobed with anti-PCNA as a loading control. c MDA-MB-231 cells with stable scrambled shRNA (WT) or stable PARG shRNA, knockdown (KD), were treated with 5 μM JA2131 for 2 h, lysed and then total lysates were immunoblotted for anti-PAR (upper panel) followed by anti-PARG (upper middle panel), anti-PARP1 (lower middle panel) and anti-actin (bottom panel) antibody. […] Stable cells with scramble shRNA (control) and shPARG (PARG-KD) cells were treated with an increasing concentration of JA2131 for growth inhibitory IC50 determination. The data was normalized against 100% survival at the lowest inhibitor concentration. Error bars show the percent coefficient of variation. Equivalent concentrations of DMSO were used as a negative control. e The cytotoxicity of JA2131 along with PDD, Veliparib and Doxorubicin against MRC-5 cells. Error bars show the percent coefficient of variation. f CETSA for in-cell JA2131 target engagement. Normalized anti-PARG western blot intensities of three independent experiments were fitted as above and the estimated aggregation temperature (Tagg) is shown in the tabulated insert. Source Data are provided as a Source Data file.

[4] = Sulforhodamine B (SRB) cytotoxicity assay; assay type: cell-based, human; settings: human, MRC-5 cells
Procedure: as §1

In the case of COc1cccc2c1C(=O)c1c(O)c3c(c(O)c1C2=O)C[C@@](O)(C(=O)CO)C[C@@H]3O[C@H]1C[C@H](N)[C@H](O)[C@H](C)O1 [Doxorubicin], the IC50 [1] is reported as 810 ± 300 nM, the viability at 72 h, 1.56 µM ([2]; log [concentration] μM 0.194) is reported as 17.2% and the viability at 72 h, 3.13 µM ([2]; log [concentration] μM 0.495) is reported as 11.1%. For the same compound, the viability at 72 h, 6.25 µM ([2]; log [concentration] μM 0.796) was 10.1%, the viability at 72 h, 12.5 µM ([2]; log [concentration] μM 1.097) was 9.95% and the viability at 72 h, 25 µM ([2]; log [concentration] μM 1.398) was 9.74%. For the same compound, the viability at 72 h, 50 µM ([2]; log [concentration] μM 1.699) was 9.95%, the viability at 72 h, 100 µM ([2]; log [concentration] μM 2) was 10.6% and the viability at 72 h, 200 µM ([2]; log [concentration] μM 2.301) was 13.8%. The viability at 72 h, 0.78 µM ([2]; log [concentration] μM -0.107) was 58.5%, the viability at 72 h, 0.39 µM ([2]; log [concentration] μM -0.408) was 95% and the viability at 72 h, 0.098 µM ([2]; log [concentration] μM -1.009) was 100%. It also gave an IC50 [3] of 741 ± 100 nM, a viability at 72 h, 1.55 µM ([4]; log [concentration] μM 0.19) of 50.4% and a viability at 72 h, 3.09 µM ([4]; log [concentration] μM 0.49) of 47.4%. The viability at 72 h, 6.31 µM ([4]; log [concentration] μM 0.8) was 50%, the viability at 72 h, 12.6 µM ([4]; log [concentration] μM 1.1) was 50% and the viability at 72 h, 25.1 µM ([4]; log [concentration] μM 1.4) was 45.6%. The viability at 72 h, 0.776 µM ([4]; log [concentration] μM -0.11) was 71.7%, the viability at 72 h, 0.389 µM ([4]; log [concentration] μM -0.41) was 96.5% and the viability at 72 h, 0.195 µM ([4]; log [concentration] μM -0.71) was 100%.
